From patent US20080153903A1, “INHIBITORS OF PROTEIN KINASE C-DELTA FOR THE TREATMENT OF GLAUCOMA” (ALCON MANUFACTURING, LTD., priority 2006, published 2008)

Experiments:
GTM-3 cells [1] = assay: Fibronectin ELISA of culture supernatants from treated GTM-3 cell monolayers (TGFβ2 mediated responses); type: cell-based, human; conditions: GTM-3 monolayers, 24 h; for TGFβ2-stimulated fibronectin levels in supernatants: FIG. 1
Protocol: FIG. 1A, FIG. 1B and FIG. 1C depict the effects of various amounts of PKC inhibitors on basal and stimulated (TGFβ2) fibronectin content in supernatants collected from treated monolayers of GTM-3 cells.
(§1) Cultured transformed human TM cells (“GTM-3”; see Pang I H, et al., 1994) were grown in a growth medium consisting of Dulbecco's modified Eagle's medium with Glutamax I (Gibco/Invitrogen, Grand Island, N.Y.) supplemented with 10% fetal bovine serum (Hyclone, Logan, Utah) and 50 μg/mL gentamicin (Gibco/Invitrogen). For assay, cultures were enzymatically-dissociated (TrypLE Express; Gibco/Invitrogen) then seeded into 24-well plates (Corning Costar, Acton, Mass.) and allowed to grow until monolayers reached approximately 90-95% confluence. Culture medium was then replaced with 0.25 mL serum- and antibiotic-free medium containing the appropriate test compound(s). Cells were incubated 24 h, at 5% CO2 and 37° C. Aliquots of culture supernatants were then assayed using ELISA kits for fibronectin (AssayPro, St. Charles, Mo.), PAI-I (American Diagnostica, Stamford, Conn.) and procollagen Type I C-peptide (TaKaRa Bio, Shiga, Japan).
(§2) The test compounds used were rottlerin (a specific PKC-delta inhibitor), Gö6976 (inhibits the calcium-dependent PKC isoforms alpha, beta, & mu) and bisindolylmaleimide I (a broad-spectrum PKC inhibitor).

GTM-3 cells [2] = assay: PAI-I ELISA of culture supernatants from treated GTM-3 cell monolayers (TGFβ2 mediated responses); type: cell-based, human; conditions: GTM-3 monolayers, 24 h; for TGFβ2-stimulated PAI-I levels in supernatants: FIG. 2
Protocol: FIG. 2A, FIG. 2B and FIG. 2C depicts the effects of PKC inhibition on basal and stimulated (TGFβ2) PAI-I content in supernatants collected from treated monolayers of GTM-3 cells.
as §1, §2

| Compound | TGFβ2-stimulated fibronectin levels in supernatants (GTM-3 cells [1]) | basal fibronectin in supernatants (GTM-3 cells [1]; basal, 10 uM dose, FIG. 1A) | TGFβ2-stimulated PAI-I levels in supernatants (GTM-3 cells [2]) | basal fibronectin content in supernatants (GTM-3 cells [1]; basal, FIG. 1B) | basal PAI-I content in supernatants (GTM-3 cells [2]; basal, FIG. 2B) | fibronectin levels in supernatants (GTM-3 cells [1]; basal and TGFβ2-stimulated, tested concentrations, FIG. 1C) |
| --- | --- | --- | --- | --- | --- | --- |
| CC(=O)c1c(O)c(C)c(O)c(Cc2c(O)c3c(c(C(=O)/C=C/c4ccccc4)c2O)OC(C)(C)C=C3)c1O [rottlerin] | effectively reduces TGFβ2-stimulated fibronectin levels at both tested concentrations | effectively reduced basal fibronectin | dose-dependently reduces TGFβ2-stimulated PAI-I levels |  |  |  |
| Cn1c2ccccc2c2c3c(c4c5ccccc5n(CCC#N)c4c21)CNC3=O [Gö6976] | without effect |  | without effect | without effect | without effect |  |
| CN(C)CCCn1cc(C2=C(c3c[nH]c4ccccc34)C(=O)NC2=O)c2ccccc21 [Bis I, bisindolylmaleimide I] |  |  | reduced TGFβ2-stimulated PAI-I levels only at the 100 nM dose |  |  | lack of effect |
